Tested on: PABPC1 PABC
Format: binding, human
Conditions: DMS-BM library, bait PABPC1 PABC, row aa = residue at this position; for DMS-derived PSSM value, position T1 / DMS-derived PSSM value (averaged), position T1: T = wild type
[1] = prey ATXN2, peptide KSTLNPNAKEFNPRSF, F = wild type
[2] = prey ATXN2, peptide TLNPNAKEFNPRSFSQ, S = wild type
[3] = prey ATXN2, peptide TLNPNAKEFNPRSFSQ, A = wild type
[4] = prey ATXN2, peptide TLNPNAKEFNPRSFSQ
[5] = prey ATXN2, peptide KSTLNPNAKEFNPRSF, L = wild type
[6] = prey ATXN2, peptide KSTLNPNAKEFNPRSF, P = wild type
[7] = prey ATXN2, peptide TLNPNAKEFNPRSFSQ, P = wild type
[8] = prey ATXN2, TLNPNAKEFNPRSF(averaged) over the two overlapping peptides
[9] = prey ATXN2, TLNPNAKEFNPRSF(averaged) over the two overlapping peptides, N = wild type
[10] = prey ATXN2, TLNPNAKEFNPRSF(averaged) over the two overlapping peptides, K = wild type
[11] = prey ATXN2, peptide KSTLNPNAKEFNPRSF, S = wild type
[12] = prey ATXN2, TLNPNAKEFNPRSF(averaged) over the two overlapping peptides, R = wild type

KSTLNPNAKEFNPRSF F16V (KSTLNPNAKEFNPRSV)
DMS-derived PSSM value, position F16 [1]: 0.175

KSTLNPNAKEFNPRSF F11M (KSTLNPNAKEMNPRSF)
DMS-derived PSSM value, position F11 [1]: 0

TLNPNAKEFNPRSFSQ S15L (TLNPNAKEFNPRSFLQ)
DMS-derived PSSM value, position S15 [2]: 0.001672

TLNPNAKEFNPRSFSQ A6L (TLNPNLKEFNPRSFSQ)
DMS-derived PSSM value, position A6 [3]: 0

TLNPNAKEFNPRSFSQ T1V (VLNPNAKEFNPRSFSQ)
DMS-derived PSSM value, position T1 [4]: 0.03168

KSTLNPNAKEFNPRSF F11Q (KSTLNPNAKEQNPRSF)
DMS-derived PSSM value, position F11 [1]: 0

KSTLNPNAKEFNPRSF L4T (KSTTNPNAKEFNPRSF)
DMS-derived PSSM value, position L4 [5]: 0

TLNPNAKEFNPRSFSQ S13M (TLNPNAKEFNPRMFSQ)
DMS-derived PSSM value, position S13 [2]: 0.008683

KSTLNPNAKEFNPRSF P6R (KSTLNRNAKEFNPRSF)
DMS-derived PSSM value, position P6 [6]: 0

KSTLNPNAKEFNPRSF F16H (KSTLNPNAKEFNPRSH)
DMS-derived PSSM value, position F16 [1]: 0.03107

TLNPNAKEFNPRSFSQ P11Q (TLNPNAKEFNQRSFSQ)
DMS-derived PSSM value, position P11 [7]: 0.01526

KSTLNPNAKEFNPRSF L4M (KSTMNPNAKEFNPRSF)
DMS-derived PSSM value, position L4 [5]: 0.3054

TLNPNAKEFNPRSF(averaged) T1D (DLNPNAKEFNPRSF)
DMS-derived PSSM value (averaged), position T1 [8]: 0.05337

TLNPNAKEFNPRSF(averaged) T1G (GLNPNAKEFNPRSF)
DMS-derived PSSM value (averaged), position T1 [8]: 0.09

KSTLNPNAKEFNPRSF A8G (KSTLNPNGKEFNPRSF)
DMS-derived PSSM value, position A8 (prey ATXN2, peptide KSTLNPNAKEFNPRSF, A = wild type): 0

TLNPNAKEFNPRSF(averaged) N10H (TLNPNAKEFHPRSF)
DMS-derived PSSM value (averaged), position N10 [9]: 0.03178

TLNPNAKEFNPRSF(averaged) E8P (TLNPNAKPFNPRSF)
DMS-derived PSSM value (averaged), position E8 (prey ATXN2, TLNPNAKEFNPRSF(averaged) over the two overlapping peptides, E = wild type): 0.1423

KSTLNPNAKEFNPRSF K9M (KSTLNPNAMEFNPRSF)
DMS-derived PSSM value, position K9 (prey ATXN2, peptide KSTLNPNAKEFNPRSF, K = wild type): 0.1105

TLNPNAKEFNPRSFSQ F14R (TLNPNAKEFNPRSRSQ)
DMS-derived PSSM value, position F14 (prey ATXN2, peptide TLNPNAKEFNPRSFSQ, F = wild type): 0.0002828

TLNPNAKEFNPRSF(averaged) K7M (TLNPNAMEFNPRSF)
DMS-derived PSSM value (averaged), position K7 [10]: 0.05548

KSTLNPNAKEFNPRSF L4I (KSTINPNAKEFNPRSF)
DMS-derived PSSM value, position L4 [5]: 0

KSTLNPNAKEFNPRSF S2Q (KQTLNPNAKEFNPRSF)
DMS-derived PSSM value, position S2 [11]: 0.001157

TLNPNAKEFNPRSF(averaged) P4G (TLNGNAKEFNPRSF)
DMS-derived PSSM value (averaged), position P4 (prey ATXN2, TLNPNAKEFNPRSF(averaged) over the two overlapping peptides, P = wild type): 0.00705

TLNPNAKEFNPRSF(averaged) T1F (FLNPNAKEFNPRSF)
DMS-derived PSSM value (averaged), position T1 [8]: 0.03587

TLNPNAKEFNPRSFSQ L2K (TKNPNAKEFNPRSFSQ)
DMS-derived PSSM value, position L2 (prey ATXN2, peptide TLNPNAKEFNPRSFSQ, L = wild type): 0.001564

TLNPNAKEFNPRSF(averaged) F14T (TLNPNAKEFNPRST)
DMS-derived PSSM value (averaged), position F14 (prey ATXN2, TLNPNAKEFNPRSF(averaged) over the two overlapping peptides, F = wild type): 0.01392

TLNPNAKEFNPRSFSQ E8P (TLNPNAKPFNPRSFSQ)
DMS-derived PSSM value, position E8 (prey ATXN2, peptide TLNPNAKEFNPRSFSQ, E = wild type): 0.2652

TLNPNAKEFNPRSFSQ A6M (TLNPNMKEFNPRSFSQ)
DMS-derived PSSM value, position A6 [3]: 0

TLNPNAKEFNPRSF(averaged) R12D (TLNPNAKEFNPDSF)
DMS-derived PSSM value (averaged), position R12 [12]: 0.02577

KSTLNPNAKEFNPRSF F11D (KSTLNPNAKEDNPRSF)
DMS-derived PSSM value, position F11 [1]: 0

KSTLNPNAKEFNPRSF P13H (KSTLNPNAKEFNHRSF)
DMS-derived PSSM value, position P13 [6]: 0

TLNPNAKEFNPRSF(averaged) N5Q (TLNPQAKEFNPRSF)
DMS-derived PSSM value (averaged), position N5 [9]: 0.02375

KSTLNPNAKEFNPRSF S2H (KHTLNPNAKEFNPRSF)
DMS-derived PSSM value, position S2 [11]: 0.0308

TLNPNAKEFNPRSF(averaged) K7D (TLNPNADEFNPRSF)
DMS-derived PSSM value (averaged), position K7 [10]: 0.01005

TLNPNAKEFNPRSF(averaged) R12I (TLNPNAKEFNPISF)
DMS-derived PSSM value (averaged), position R12 [12]: 0.04426

TLNPNAKEFNPRSFSQ R12A (TLNPNAKEFNPASFSQ)
DMS-derived PSSM value, position R12 (prey ATXN2, peptide TLNPNAKEFNPRSFSQ, R = wild type): 0.004965

TLNPNAKEFNPRSFSQ T1H (HLNPNAKEFNPRSFSQ)
DMS-derived PSSM value, position T1 [4]: 0.01756

TLNPNAKEFNPRSFSQ P11T (TLNPNAKEFNTRSFSQ)
DMS-derived PSSM value, position P11 [7]: 0.2817

TLNPNAKEFNPRSFSQ S13K (TLNPNAKEFNPRKFSQ)
DMS-derived PSSM value, position S13 [2]: 0.007933

Reference: PMC12102759 (Protein Science : A Publication of the Protein Society, 2025)
